Laboratory results reported in article PMC6337497 (International Journal of Molecular Sciences, 2018).

Tests used:
[1] = tested on: HCT116 cells; assay: MTT cell viability assay, HCT116; type: cell-based, Human; details: HCT116, 48 h
Method: Human prostate cancer PC3 cells (CRL 1435, ATCC, Manassas, VA, USA) were grown in Ham’s F12 nutrient medium, human prostate cancer DU145 cells (HTB-81, ATCC, Manassas, VA, USA) in RPMI 1640 medium and human colorectal carcinoma HCT116 cells (CCL-247, ATCC, Manassas, VA, USA) in IMDM medium. All media (Biowest, Nuaillé, France) were supplemented with 10% Foetal Bovine Serum (Gibco-Thermo Fisher Scientific, Waltham, MA, USA), L-glutamine, penicillin, and streptomycin (Euroclone, Milan, Italy), and grown at 37 °C in a humidified 5% CO2 atmosphere. The inhibition of cell proliferation was measured by colorimetric MTT assay [51] and the concentration at which cellular growth is inhibited by 50% (GI50) was determined. Briefly, cells were seeded into 96-well plates at a density of 2000 cells/well. The following day, cells were treated with the indicated compounds and analyzed for cell viability after 48 h. 5 mg/mL thiazolyl blue tetrazolium bromide (Sigma-Aldrich, St. Louis, MO, USA) was added to each well at a final concentration of 0.5 mg/mL and the plates were incubated at 37 °C for 2 h. Medium containing unconverted MTT was removed and 100 µL MTT solvent (4 mM HCl, 0.1% NP-40 in isopropyl alcohol) was added to each well. The plate was gently rotated on an orbital shaker in the dark for 15 min, before the measurements of absorbance at 570 nm. […]

[2] = tested on: PC3 cells; assay: Cell migration (wound) assay, PC3; type: cell-based, Human; details: PC3, GI50 dose, 40 h
Method: (§1) 4 × 10^5 prostate cancer cells were plated in a 12-well plate. Approximately 24 h later, when the cells were 100% confluent, the monolayer was scratched using a 200 µL pipette tip. […] Three biological replicates were performed. Three random pictures were taken for each treated well per experiment and the areas of the wounds measured using ImageJ software. The percentage of wound recovery was then calculated using the formula: (final area-initial area)/initial area × 100%.

[3] = tested on: DU145 cells; assay: MTT cell viability assay, DU145; type: cell-based, Human; details: Homo sapiens, DU-145; 48 h treatment, MTT
Method: Human prostate cancer PC3 cells (CRL 1435, ATCC, Manassas, VA, USA) were grown in Ham’s F12 nutrient medium, human prostate cancer DU145 cells (HTB-81, ATCC, Manassas, VA, USA) in RPMI 1640 medium and human colorectal carcinoma HCT116 cells (CCL-247, ATCC, Manassas, VA, USA) in IMDM medium. All media (Biowest, Nuaillé, France) were supplemented with 10% Foetal Bovine Serum (Gibco-Thermo Fisher Scientific, Waltham, MA, USA), L-glutamine, penicillin, and streptomycin (Euroclone, Milan, Italy), and grown at 37 °C in a humidified 5% CO2 atmosphere.
DMSO was used as control.
(§2) The inhibition of cell proliferation was measured by colorimetric MTT assay and the concentration at which cellular growth is inhibited by 50% (GI50) was determined. Briefly, cells were seeded into 96-well plates at a density of 2000 cells/well. The following day, cells were treated with the indicated compounds and analyzed for cell viability after 48 h. 5 mg/mL thiazolyl blue tetrazolium bromide (Sigma-Aldrich, St. Louis, MO, USA) was added to each well at a final concentration of 0.5 mg/mL and the plates were incubated at 37 °C for 2 h. Medium containing unconverted MTT was removed and 100 µL MTT solvent (4 mM HCl, 0.1% NP-40 in isopropyl alcohol) was added to each well. The plate was gently rotated on an orbital shaker in the dark for 15 min, before the measurements of absorbance at 570 nm. The viability of untreated cells was arbitrarily set at 100%.

[4] = tested on: DU145 cells; assay: Anchorage-dependent colony formation assay, DU145; type: cell-based, Human; details: DU145, 10 days, different doses
Method: (§3) For anchorage-dependent colony formation assay, 1000 PC3 or 500 DU145 cells were plated in 6-well plates. […] After 7–10 days, the plates were washed, fixed and stained with 0.5% crystal violet solution in 20% Methanol. […] Colony numbers were normalized as a percentage of colonies formed following DMSO treatment.

[5] = tested on: PC3 cells; assay: Cell cycle analysis (propidium iodide), PC3; type: cell-based, Human; details: PC3, 48 h at GI50 dose
Method: Cells were harvested after 48 h drug treatments and DNA distribution analysis of cells stained with propidium iodide solution (propidium iodide 25 µg/mL, Na-Citrate 3.4 mM, NaCl 9.65 mM, NP-40 0.03%) was performed by an Epics cytofluorimeter (Beckman Coulter Srl, Milan, Italy).

[6] = tested on: PC3 cells; assay: Anchorage-dependent colony formation assay, PC3; type: cell-based, Human
Method: as §3

[7] = tested on: DU145 cells; assay: RT-qPCR gene transcription, DU145; type: cell-based, Human; details: DU145, 48 h at GI50 dose
Method: Data are presented as relative transcript levels, normalized with RPL21 housekeeping gene, with DMSO levels arbitrarily set at 1.
RNA was extracted from cells using RNeasy kit (Qiagen, Venlo, The Netherlands) and reversed transcribed with a Moloney murine leukemia virus reverse transcriptase (Promega, Madison, WI, USA). Quantitative real-time PCRs were performed using SsoAdvanced Universal SYBR Green Supermix (Bio-Rad, Hercules, CA, USA) on a Bio-Rad CFX Connect™ real-time PCR detection system. Primer sequences are available upon request. The housekeeping gene Rpl21 was used as a loading control. The relative fold change enrichments of real-time PCR samples were calculated with the formula 2^−(ΔΔCt), where −(ΔΔCt) = −[(Ct target − Ct Rpl21)treated − (Ct target − Ct Rpl21)DMSO].

[8] = tested on: PC3 cells; assay: Western blot of total cellular lysates, PC3; type: cell-based, Human; details: PC3, 48 h at GI50 dose
Method: (§5) Actin was used as loading control. Whole-cell protein extracts were prepared by resuspending cells into 1X SDS sample buffer (25 mM Tris-HCl pH 6.8, 1.5 mM EDTA, 20% glycerol, 2% SDS, 5% β-mercaptoethanol, 0.0025% Bromophenol blue). Equivalent amounts of cellular extracts were resolved by SDS-PAGE, electrotransferred to PVDF membrane (GE Healthcare Italia, Milan, Italy) and immunoblotted with the following primary antibodies: anti-phospo-H2AX (sc-101696), anti-p53 (DO1) (sc-126), anti-actin ([MUT]) (sc-1616) and anti-PARP (sc-8007) antibody from Santa Cruz Biotecnology, Inc, Dallas, TX, USA.; phospho-specific AKT antibody S473 (#9018) and T308 (#9275), Akt antibody (#9272 and #2967), phospho-specific ERK1/2 antibody T202/Y204 (#4370), ERK1/2 antibody (#4669), phospho-specific p38 MAPK antibody T180/Y182 (#9211), and p38 antibody (#9212) were purchased from Cell Signaling Technologies, Danvers, MA, USA. Membranes were blotted and scanned with Bio-Rad ChemiDocTM Touch Imaging System (Bio-Rad, Hercules, CA, USA), using chemiluminescent detection reagents from Cyanagen, Bologna, Italy (Westar ηC and Supernova HRP substrates for Western blotting).

[9] = tested on: DU145 cells; assay: Western blot of total cellular lysates, DU145; type: cell-based, Human; details: DU145, 48 h at GI50 dose
Method: as §5

[10] = tested on: PC3 cells; assay: Anchorage-independent colony formation assay, PC3; type: cell-based, Human; details: PC3, 5 µM
Method: (§4) For anchorage-independent colony formation assay, 0.6% low melt agarose gel with 10% FBS in appropriate complete cell growth medium was prepared and added to the wells of a twelve-well culture dish as a base agar. […] PC3 and DU145 cells were allowed to grow at 37 °C for three weeks (PC3) or five weeks (DU145). The effect of the drugs on anchorage-independent growth was determined by colony growth. Colonies were stained with 0.07% crystal violet and formed colonies were imaged. The numbers of colonies with radius ≥ 7 pixels were counted with automated colony counter (OpenCFU 3.9.0) and average number of colonies was plotted against drug concentrations. Colony numbers were normalized as a percentage of colonies formed following DMSO treatment.

[11] = tested on: DU145 cells; assay: Cell migration (wound) assay, DU145; type: cell-based, Human; details: DU145, GI50 dose, 16 h
Method: as §1

[12] = tested on: DU145 cells; assay: Anchorage-independent colony formation assay, DU145; type: cell-based, Human; details: DU145, 10 µM
Method: as §4

[13] = Lipophilicity (data not shown); type: physicochemical
[14] = tested on: PC3 cells; assay: K3F21/docetaxel co-administration, MTT and CompuSyn, PC3; type: cell-based, Human; details: PC3, K3F21/DTX combinations
Method: as §2
The ability of K3F21 and docetaxel to act synergistically with regard to growth inhibition was determined using CompuSyn software (ComboSyn, Inc., freely available at http://www.combosyn.com). Combination index (CI) and drug reduction index (DRI) were calculated for each concentration of drugs mixture, as indicated in the text. CI <1, =1 or >1 indicates synergism, additive effect, or antagonism, respectively. DRI >1 or <1 indicates favorable or not favorable dose-reduction.

GI50 [3]: 8.6 µM | lipophilicity [13]: high
SMILES: COc1cc(/C=C/C(=O)C(CCCN2C(=O)c3ccccc3C2=O)C(=O)/C=C/c2ccc(O)c(OC)c2)ccc1O [K3F21]
anti-proliferative activity compared to the other derivatives [1]: most active molecule | cell migration (wound recovery) [2]: exerted inhibitory effects on the migratory capacity | anchorage-dependent colony growth [4]: clearly inhibited cell growth when administered at lower concentrations than curcumin | effect on cell cycle distribution (in words) [5]: doubled the percentage of G2/M cells | anchorage-dependent colony formation ([6]; PC3, 5 µM): quite completely abolished | anchorage-dependent colony growth ([6]; PC3, 7 days, different doses): clearly inhibited cell growth when administered at lower concentrations than curcumin | EGFR expression [7]: reduced | Noxa transcription [7]: induced | Puma transcription [7]: increased exclusively following K3F21 administration | transcription of CDK inhibitors p21 and p27 [7]: raised only after K3F21 treatment | transcription of Cdc2, CyclinB1, CyclinB2, and CyclinD1 cell cycle genes ([7]; compared to curcumin and control cells): general decrease, though not always significant | ERK1/2 phosphorylation [8]: increased | phospho-p38 expression [8]: inhibited | phosphorylation of AKT in Ser473 and Thr308 [8]: inhibited | γH2AX expression (marker of DNA damage) [8]: triggered DNA damage | ERK1/2 phosphorylation [9]: increased | PARP-1 cleavage (apoptotic cell death) [9]: activation of apoptotic cell death | phospho-p38 expression [9]: no changes were observed | γH2AX expression (marker of DNA damage) [9]: triggered DNA damage | decrease in colony formation, anchorage-independent [10]: up to 95% | cell migration (wound recovery) [11]: exerted inhibitory effects on the migratory capacity | decrease in colony formation, anchorage-independent [12]: up to 95% | cell growth of co-administration compared to single administration [14]: none of the evaluated K3F21/DTX combinations affected cell growth
